Assay results taken from ChEMBL document CHEMBL1201862, “PubChem BioAssay data set” (2004).
“And” between values parts separate entries of the source, which are not always exact repeats. Equal values may be shown once.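 Step 1: Grow cells in 96-well plates. Step 2: Expose to compound for 48 hours at 5 concentrations. Step 3: Interpolate endpoints linearly; if unreached, use highest concentration. GI50 = concentration required for 50% inhibition of growth.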 The source made the active and inactive calls. Rule as the data show it: active = GI50 up to about 1.1 µM and inactive = higher.

Key:
Test in all cases: growth of human tumour cells (NCI), 48 h
[1] = test system: HT-29
[2] = test system: K562
[3] = test system: M19-MEL
[4] = test system: Malme-3M
[5] = test system: NCI-H522
[6] = test system: RPMI-8226
[7] = test system: 786-0
[8] = test system: A498
[9] = test system: A549
[10] = test system: ACHN
[11] = test system: BT-549
[12] = test system: CAKI-1
[13] = test system: CCRF-CEM
[14] = test system: COLO 205
[15] = test system: DU-145
[16] = test system: EKVX
[17] = test system: HCC 2998
[18] = test system: HCT-116
[19] = test system: HCT-15
[20] = test system: HL-60
[21] = test system: HOP-62
[22] = test system: HOP-92
[23] = test system: Hs-578T
[24] = test system: IGROV-1
[25] = test system: KM12
[26] = test system: LOX IMVI
[27] = test system: M14
[28] = test system: MCF7
[29] = test system: MDA-MB-231
[30] = test system: MDA-MB-435
[31] = test system: MDA-N
[32] = test system: MOLT-4
[33] = test system: NCI-H226
[34] = test system: NCI-H23
[35] = test system: NCI-H460
[36] = test system: NCI/ADR-RES
[37] = test system: OVCAR-3
[38] = test system: OVCAR-4
[39] = test system: OVCAR-5
[40] = test system: OVCAR-8
[41] = test system: PC-3
[42] = test system: RXF 393
[43] = test system: SF-268
[44] = test system: SF-295
[45] = test system: SF-539
[46] = test system: SK-MEL-28
[47] = test system: SK-MEL-2
[48] = test system: SK-MEL-5
[49] = test system: SK-OV-3
[50] = test system: SN12C
[51] = test system: SNB-19
[52] = test system: SNB-75
[53] = test system: SR
[54] = test system: SW-620
[55] = test system: T47D
[56] = test system: TK-10
[57] = test system: U-251
[58] = test system: UACC-257
[59] = test system: UACC-62
[60] = test system: UO-31
[61] = test system: DLD-1
[62] = test system: DMS-273
[63] = test system: LXFL 529

Measured: GI50

COc1ccc(C(c2ccccc2)C(C)C(=O)c2c(C)cc(C)cc2C)cc1 (configuration not stated)
inactive: [1] 47.4 µM and 56 µM | [2] 94.2 µM and 53.7 µM | [3] 42.5 µM and 59 µM | [4] 57.7 µM | [5] 37.8 µM and 53.5 µM | [6] 69.8 µM and 79.8 µM

Nc1nc(Cl)c(N)c(NCC2(CO)CC2)n1
> 100 µM: [19]
inactive: [7] > 100 µM | [8] > 100 µM | [9] > 100 µM | [10] > 100 µM | [11] > 100 µM | [12] > 100 µM | [13] > 100 µM | [14] > 100 µM | [15] > 100 µM | [16] > 100 µM | [17] > 100 µM | [18] > 100 µM | [20] > 100 µM | [21] > 100 µM | [22] > 100 µM | [1] > 100 µM | [23] > 100 µM | [24] > 100 µM | [2] > 100 µM | [25] > 100 µM | [26] > 100 µM | [27] > 100 µM | [28] > 100 µM | [29] > 100 µM | [30] > 100 µM | [31] > 100 µM | [32] > 100 µM | [4] > 100 µM | [33] > 100 µM | [34] > 100 µM | [35] > 100 µM | [5] > 100 µM | [36] > 100 µM | [37] > 100 µM | [38] > 100 µM | [39] > 100 µM | [40] > 100 µM | [41] > 100 µM | [6] > 100 µM | [42] > 100 µM | [43] > 100 µM | [44] > 100 µM | [45] > 100 µM | [46] > 100 µM | [47] > 100 µM | [48] > 100 µM | [49] > 100 µM | [50] > 100 µM | [51] > 100 µM | [52] > 100 µM | [53] > 100 µM | [54] > 100 µM | [55] > 100 µM | [56] > 100 µM | [57] > 100 µM | [58] > 100 µM | [59] > 100 µM | [60] > 100 µM

C=CC(OC(C)=O)c1ccc(OC(=O)C(C)C)c(OC)c1 (configuration not stated)
inactive: [7] 1.99 µM | [8] 17.2 µM | [9] 18.8 µM | [10] 3.34 µM | [11] 6.79 µM | [12] 1.77 µM | [13] 2.01 µM | [14] 2.49 µM | [15] 11.5 µM | [16] 7.5 µM | [17] 11.2 µM | [18] 5.85 µM | [20] 2.79 µM | [21] 10.2 µM | [22] 5.93 µM | [1] 2.31 µM | [23] 6.64 µM | [24] 12.9 µM | [2] 3.15 µM | [25] 2.67 µM | [26] 1.95 µM | [27] 5.6 µM | [28] 2.36 µM | [29] 4.72 µM | [30] 5.73 µM | [31] 5.22 µM | [32] 9.02 µM | [4] 1.94 µM | [33] 19.6 µM | [34] 9.4 µM | [35] 11.4 µM | [5] 1.54 µM | [36] 10.2 µM | [37] 5.81 µM | [38] 4.9 µM | [39] 2.51 µM | [40] 4.81 µM | [41] 5.19 µM | [6] 1.82 µM | [42] 3.18 µM | [43] 7.8 µM | [44] 10.5 µM | [45] 9.4 µM | [46] 11.1 µM | [47] 4.48 µM | [48] 15.3 µM | [49] 16.6 µM | [50] 3.63 µM | [51] 11.8 µM | [52] 4.86 µM | [53] 2.49 µM | [54] 2.6 µM | [55] 2.86 µM | [56] 5.04 µM | [57] 2.39 µM | [58] 9.86 µM | [59] 13.3 µM | [60] 3.44 µM
4.98 µM: [19]

N#Cc1c(C#N)c(SSc2c(C#N)c(C#N)c(N)n2-c2cccc3ccccc23)n(-c2cccc3ccccc23)c1N
inactive: [7] 1.98 µM | [8] 30.2 µM | [9] 19.9 µM | [10] 5.15 µM | [11] 5.83 µM | [12] 8.05 µM | [13] 1.97 µM | [14] 3.67 µM | [15] 21.9 µM | [16] 5.51 µM | [17] 20.1 µM | [18] 2.37 µM | [20] 2.33 µM | [21] 21.7 µM | [22] 4.71 µM | [1] 19.7 µM | [23] 24.6 µM | [24] 7.45 µM | [2] 3.51 µM | [25] 41.6 µM | [26] 7.94 µM | [27] 3.08 µM | [28] 3.47 µM | [29] 18.4 µM | [30] 8.77 µM | [31] 6.11 µM | [32] 2.63 µM | [4] 1.85 µM | [33] 30.2 µM | [34] 11.2 µM | [35] 46.8 µM | [5] 1.5 µM | [36] 25.1 µM | [37] 1.84 µM | [38] 6.01 µM | [39] 24.2 µM | [40] 4.36 µM | [41] 17.4 µM | [6] 2.76 µM | [42] 6.08 µM | [43] 14.4 µM | [44] 19.9 µM | [45] 15.7 µM | [46] 6.03 µM | [47] 15.3 µM | [48] 20.2 µM | [49] 24.1 µM | [50] 12 µM | [51] 20.9 µM | [52] 5.62 µM | [53] 2.34 µM | [54] 2.56 µM | [55] 1.92 µM | [56] 5.77 µM | [57] 19.7 µM | [58] 5.62 µM | [59] 18 µM | [60] 2.34 µM
1.98 µM: [19]

c1ccc(CN2CCN3CCN(CC2)CCN(Cc2ccccc2)CC3)cc1
inactive: [7] 4.57 µM | [8] 11.7 µM | [9] 11.5 µM | [10] 20.7 µM | [11] 5.16 µM | [12] 30.3 µM | [13] 6.37 µM | [14] 1.93 µM | [15] 12.4 µM | [16] 8.47 µM | [17] 10.9 µM | [18] 4.09 µM | [20] 2.55 µM | [21] 14.2 µM | [22] 7.06 µM | [1] 3.37 µM | [23] 14.6 µM | [24] 7.23 µM | [2] 4 µM | [25] 3.33 µM | [26] 8.81 µM | [27] 5.51 µM | [28] 5.5 µM | [29] 5.43 µM | [30] 3.15 µM | [31] 3.3 µM | [32] 8.75 µM | [4] 2.83 µM | [33] 4.94 µM | [34] 5.05 µM | [35] 6.15 µM | [5] 4.36 µM | [36] > 100 µM | [37] 7.91 µM | [38] 4.04 µM | [39] 9.48 µM | [40] 9.73 µM | [41] 4.97 µM | [6] 2.14 µM | [42] 5.6 µM | [43] 11.6 µM | [44] 21.9 µM | [45] 8.26 µM | [46] 4.67 µM | [47] 2.82 µM | [48] 1.98 µM | [49] 16.4 µM | [50] 4.51 µM | [51] 5.43 µM | [52] 4.05 µM | [53] 4.08 µM | [54] 13.7 µM | [55] 4.08 µM | [56] 11.4 µM | [57] 4.29 µM | [58] 3.04 µM | [59] 4.24 µM | [60] 31.7 µM
32.4 µM: [19]

c1ccncc1
inactive: [9] > 100 µM | [10] > 100 µM | [61] > 100 µM | [62] > 100 µM | [26] > 100 µM | [63] > 100 µM | [4] > 100 µM | [33] > 100 µM | [34] > 100 µM | [43] > 100 µM | [45] > 100 µM | [50] > 100 µM | [52] 85.5 µM | [53] > 100 µM
> 100 µM: [19]
